Data as given in the CheMixHub viscosity set.

Assay: xn = mol fraction of the nth substance listed

CCOCCO + CC(C)O
viscosity [mPa·s], 101.33 kPa
Settings	x1 = 0.1024	x1 = 0.2002	x1 = 0.301	x1 = 0.4035	x1 = 0.5037	x1 = 0.6022	x1 = 0.6984	x1 = 0.8009	x1 = 0.9017
298.15 K	1.858	1.764	1.703	1.692	1.682	1.693	1.711	1.756	1.773
303.15 K	1.614	1.54	1.495	1.49	1.491	1.504	1.518	1.566	1.575
308.15 K	1.404	1.356	1.324	1.325	1.329	1.34	1.36	1.398	1.413
313.15 K	1.233	1.19	1.17	1.176	1.19	1.203	1.217	1.259	1.267

CNC(C)=O + Cc1ccccc1
308.15 K, 101.33 kPa
Settings	viscosity [mPa·s]
x1 = 0.0366	0.4848
x1 = 0.1983	0.7283
x1 = 0.3436	1.012
x1 = 0.4518	1.26
x1 = 0.5799	1.582
x1 = 0.6965	1.936
x1 = 0.7868	2.28
x1 = 0.8882	2.718
x2 = 0.0175	3.188

CC(C)CCO + CC(C)CO
viscosity [mPa·s], 101 kPa
Settings	x1 = 0.2	x1 = 0.4	x1 = 0.6	x1 = 0.8
293.15 K	4.048	4.099	4.163	4.241
313.15 K	2.178	2.22	2.27	2.326

CC(C)CCO + OCCO
viscosity [mPa·s], 100 kPa
Settings	x1 = 0.0538	x1 = 0.1127	x1 = 0.1769	x1 = 0.2492	x1 = 0.3333	x1 = 0.4312	x1 = 0.5385	x1 = 0.6667	x1 = 0.8167
298.15 K	17.29	16.59	15.84	14.92	13.82	12.46	10.93	8.999	6.622
303.15 K	13.53	13.1	12.52	11.8	10.97	9.889	8.629	7.087	5.243
308.15 K	11.48	11.11	10.72	10.22	9.549	8.689	7.683	6.336	4.792

CNC(C)=O + CCCCO
303.15 K, 101 kPa
Settings	viscosity [mPa·s]
x1 = 0.0988	2.32
x1 = 0.2013	2.369
x1 = 0.2993	2.428
x1 = 0.3951	2.525
x1 = 0.4945	2.651
x1 = 0.5957	2.82
x1 = 0.6947	3.015
x1 = 0.8011	3.259
x1 = 0.8918	3.503

CC(CC(C)(C)C)CP(=O)(O)CC(C)CC(C)(C)C (stereo unspecified) + c1ccccc1
298.15 K, 101 kPa
Settings	viscosity [mPa·s]
x1 = 0.0058	0.631
x1 = 0.0104	0.661
x1 = 0.0122	0.678
x2 = 0.1178	93.82
x2 = 0.2304	71.32
x2 = 0.3732	46.06
x2 = 0.5517	20.77
x2 = 0.6956	8.438
x2 = 0.784	4.43
x2 = 0.7966	4.061
x2 = 0.8411	2.952
x2 = 0.8809	2.165
x2 = 0.8838	2.106
x2 = 0.9333	1.332
x2 = 0.9375	1.29
x2 = 0.9656	0.94
x2 = 0.9738	0.83
